# Measured values taken from patent US10894067B2, “Genome stability enhancer” (Yamada Bee Company, Inc., priority 2017, dated 2021).
# Tested on: H2AX expression in MEF (mouse embryo fibroblast) cells
# Assay: Western analysis of H2AX expression in MEF cells (Test Examples 1-3)
# Type: cell-based
# Description: MEF (mouse embryo fibroblast) cells were cultured at 37° C. in 5% CO2 by the 3T3 method in a 10% FCS (fetal calf serum)-containing DMEM medium to which a 25 μg/ml enzymatically treated RJ or non-treated RJ was added. The cells that were cultured for 0, 3, 6, 12, and 24 hours were harvested, and Western analysis was performed using a H2AX antibody (Bethyl Laboratories, Inc.) and a β-actin antibody (AC-74, Sigma-Aldrich Co. LLC.).
# In the same manner as in Test Example 1, the effects of melinjo and trans-resveratrol on H2AX expression were analyzed. In this test example, a 0.26, 0.52, 1.0, or 2.1 w/v % melinjo seed extract or trans-resveratrol was added to a medium, and cells were cultured for 1 hour and harvested.
compound,measurement,setting,value
Oc1ccc(/C=C/c2cc(O)cc(O)c2)cc1 [trans-resveratrol],Induced transient H2AX expression,"Test Example 2, 0.26, 0.52, 1.0 or 2.1 w/v % in medium, cultured 1 hour, FIG. 2",Induced transient H2AX expression was observed
same,Induced transient H2AX expression,"Test Example 3, 2.5 μM (0.52 μg/ml) trans-resveratrol, 0.52 μg/ml melinjo seed extract, 2.5 μM gnetin C, 0-24 hours, FIG. 3",Induced transient H2AX expression was observed
